Experimental data from US20230248834A1, “DEGRADATION OF (EGFR) BY CONJUGATION OF EGFR INHIBITORS WITH E3 LIGASE LIGAND AND METHODS OF USE” (BEIGENE, LTD., priority 2020, published 2023).

Columns and labels:
EGFR L858R/C797S = target: T1, EGFR L858R/C797S (Homo sapiens, UniProt P00533, C797S/L858R); test: EGFR degradation HTRF assay in BaF3 LC cells; type: cell-based; settings: BaF3 LC (L858R/C797S), maximum percentage of inhibition (degradation); read-out: BaF3 LC Dmax (%)
T1 construct: expressed in transfected cells; host or cells: BaF3 LC
T1 sequence (P00533 25-1210 C797S/L858R): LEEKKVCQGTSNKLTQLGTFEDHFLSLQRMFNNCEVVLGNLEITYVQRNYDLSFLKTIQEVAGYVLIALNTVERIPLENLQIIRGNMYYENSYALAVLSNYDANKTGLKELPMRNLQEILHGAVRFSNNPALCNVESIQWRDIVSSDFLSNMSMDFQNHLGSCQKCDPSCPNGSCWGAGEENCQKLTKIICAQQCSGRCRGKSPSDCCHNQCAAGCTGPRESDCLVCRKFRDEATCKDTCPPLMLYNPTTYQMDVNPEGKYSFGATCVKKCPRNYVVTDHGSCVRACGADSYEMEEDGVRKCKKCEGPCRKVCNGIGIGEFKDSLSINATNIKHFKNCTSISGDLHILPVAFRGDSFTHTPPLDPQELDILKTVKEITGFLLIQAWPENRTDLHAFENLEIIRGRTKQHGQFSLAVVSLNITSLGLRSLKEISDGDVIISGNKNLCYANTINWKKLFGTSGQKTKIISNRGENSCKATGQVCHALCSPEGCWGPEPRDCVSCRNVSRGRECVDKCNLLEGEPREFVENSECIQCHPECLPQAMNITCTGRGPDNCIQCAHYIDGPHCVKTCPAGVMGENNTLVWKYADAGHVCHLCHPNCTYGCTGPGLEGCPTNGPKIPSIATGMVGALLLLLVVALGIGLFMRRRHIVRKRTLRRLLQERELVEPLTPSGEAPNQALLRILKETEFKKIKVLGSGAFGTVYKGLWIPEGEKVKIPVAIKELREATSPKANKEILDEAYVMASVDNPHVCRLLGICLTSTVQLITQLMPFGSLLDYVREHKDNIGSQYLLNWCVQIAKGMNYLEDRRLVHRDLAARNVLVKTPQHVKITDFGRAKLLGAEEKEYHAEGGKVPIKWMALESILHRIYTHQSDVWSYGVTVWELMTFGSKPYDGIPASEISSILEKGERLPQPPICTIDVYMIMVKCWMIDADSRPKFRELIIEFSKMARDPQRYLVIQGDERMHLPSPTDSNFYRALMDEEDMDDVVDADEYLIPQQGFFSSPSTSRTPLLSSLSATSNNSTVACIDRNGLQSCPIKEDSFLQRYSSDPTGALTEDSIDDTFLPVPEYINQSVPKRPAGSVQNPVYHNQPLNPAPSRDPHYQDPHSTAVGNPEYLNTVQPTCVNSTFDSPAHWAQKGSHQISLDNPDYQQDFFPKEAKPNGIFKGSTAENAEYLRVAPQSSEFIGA
Experimental: BaF3-LTC(L858R/T790M/C797S) cells and BaF3 LC(L858R/C797S) cells are treated with compounds diluted in 0.2% DMSO cell culture medium and incubate for 16 h, 37° C., 5% CO2. the final concentration of compounds in all assay is start with 10 uM, 5-fold dilution, total 8 doses were included.
After 16 h treatment, add HTRF lysis buffer to each well; seal the plate and incubate 1 hour at room temperature on a plate shaker; Once the cells are lysed, 16 μL of cell lysate are transferred to a PE 384-well HTRF detection plate; 4 μL of pre-mixed HTRF antibodies are added to each well; Cover the plate with a plate sealer, spin 1000 rpm for 1 min, Incubate overnight at room temperature; Read on BMG PheraStar with HTRF protocol (337 nm-665 nm-620 nm).
The inhibition (degradation) percentage of the compound was calculated by the following equation: Inhibition percentage of Compound=100−100×(Signal−low control)/(High control−low control), wherein signal=each test compound group
High control=Cell group with added DMSO and without compound, indicating microplate readings without EGFR degradation;
Dmax is the maximum percentage of inhibition (degradation).
The IC50 (DC50) value of a compound can be obtained by fitting the following equation
Y=Bottom+(TOP−Bottom)/(1+((IC50/X)^hillslope))
Wherein, X and Y are known values, and IC50, Hillslope, Top and Bottom are the parameters obtained by fitting with software. Y is the inhibition percentage (calculated from the equation), X is the concentration of the compound; IC50 is the concentration of the compound when the 50% inhibition is reached. The smaller the IC50 value is, the stronger the inhibitory ability of the compound is. Vice versa, the higher the IC50 value is, the weaker the inhibitory ability of the compound is; Hillslope represents the slope of the fitted curve, generally around 1*; Bottom represents the minimum value of the curve obtained by data fitting, which is generally 0%±20%; Top represents the maximum value of the curve obtained by data fitting, which is generally 100%±20%. The experimental data were fitted by calculating and analyzing with Dotmatics data analysis software.

EGFR L858R/T790M/C797S = target: T2, EGFR L858R/T790M/C797S (Homo sapiens, UniProt P00533, C797S/L858R/T790M); test: EGFR degradation HTRF assay in BaF3-LTC cells; type: cell-based; settings: BaF3-LTC (L858R/T790M/C797S), maximum percentage of inhibition (degradation); read-out: BaF3-LTC Dmax (%)
T2 construct: expressed in transfected cells; host or cells: BaF3-LTC
T2 sequence (P00533 25-1210 T790M/C797S/L858R): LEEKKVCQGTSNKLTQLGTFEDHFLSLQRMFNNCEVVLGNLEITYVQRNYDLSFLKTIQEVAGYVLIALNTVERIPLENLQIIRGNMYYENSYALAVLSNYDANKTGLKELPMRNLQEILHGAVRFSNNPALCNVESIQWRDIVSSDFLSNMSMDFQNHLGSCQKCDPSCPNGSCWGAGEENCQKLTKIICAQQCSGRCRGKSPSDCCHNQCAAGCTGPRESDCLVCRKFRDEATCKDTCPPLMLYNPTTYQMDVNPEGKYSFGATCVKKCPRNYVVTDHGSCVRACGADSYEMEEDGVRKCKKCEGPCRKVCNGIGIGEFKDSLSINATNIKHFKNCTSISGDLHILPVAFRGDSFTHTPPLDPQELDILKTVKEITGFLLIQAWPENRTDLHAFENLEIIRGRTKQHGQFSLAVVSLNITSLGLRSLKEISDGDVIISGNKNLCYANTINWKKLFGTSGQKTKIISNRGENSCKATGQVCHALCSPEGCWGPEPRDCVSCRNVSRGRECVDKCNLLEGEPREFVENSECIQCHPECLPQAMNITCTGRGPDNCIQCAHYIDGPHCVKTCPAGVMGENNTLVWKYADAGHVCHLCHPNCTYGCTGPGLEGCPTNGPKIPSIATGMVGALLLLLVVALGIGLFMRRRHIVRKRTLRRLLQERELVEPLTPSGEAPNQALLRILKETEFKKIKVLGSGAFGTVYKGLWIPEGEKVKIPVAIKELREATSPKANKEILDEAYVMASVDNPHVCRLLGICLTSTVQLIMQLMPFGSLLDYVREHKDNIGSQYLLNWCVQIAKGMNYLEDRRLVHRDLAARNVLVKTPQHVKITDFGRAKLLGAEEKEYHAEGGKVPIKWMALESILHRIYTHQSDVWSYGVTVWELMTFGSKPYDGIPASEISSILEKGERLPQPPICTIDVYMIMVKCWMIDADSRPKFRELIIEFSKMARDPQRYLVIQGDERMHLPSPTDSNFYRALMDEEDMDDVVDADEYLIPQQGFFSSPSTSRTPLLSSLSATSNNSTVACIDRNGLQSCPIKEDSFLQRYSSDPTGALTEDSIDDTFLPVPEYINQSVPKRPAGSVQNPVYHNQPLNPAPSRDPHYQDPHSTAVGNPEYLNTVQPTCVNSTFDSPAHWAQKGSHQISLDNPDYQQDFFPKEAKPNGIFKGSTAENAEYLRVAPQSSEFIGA
Outline: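 BaF3 cells expressing EGFR L858R/C797S or L858R/T790M/C797S treated 16 h at 37 °C with compounds (top 10 uM, 5-fold, 8 doses; 0.2% DMSO). Remaining EGFR quantified by HTRF in lysates after overnight antibody incubation. Degradation percentage versus DMSO controls; DC50 from four-parameter fit, Dmax as maximal degradation.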

SMILES | Dmax (EGFR L858R/C797S) [%] | Dmax (EGFR L858R/T790M/C797S) [%]
CCOc1cc(N2CCC(N3CCN(CCc4cc(F)c([C@H]5CCC(=O)NC5=O)c(F)c4)CC3)CC2)c(CC)cc1Nc1ncc(Br)c(Nc2cc(F)c3nc(CC)ccc3c2P(C)(C)=O)n1 [Example 486, (R)-3-(4-(2-(4-(1-(4-((5-bromo-4-((5-(dimethylphosphoryl)-2-ethyl-8-fluoroquinolin-6-yl)amino)pyrimidin-2-yl)amino)-5-ethoxy-2-ethylphenyl)piperidin-4-yl)piperazin-1-yl)ethyl)-2,6-difluorophenyl)piperidine-2,6-dione] | 87.8 | 87.8
CCOc1cc(N2CCC(N3CCN(CC4CN(c5cc(F)c([C@H]6CCC(=O)NC6=O)c(F)c5)C4)CC3)CC2)c(CC)cc1Nc1ncc(Br)c(Nc2ccc3c(=O)n(CC)ncc3c2P(C)(C)=O)n1 [Example 551, (R)-3-(4-(3-((4-(1-(4-((5-bromo-4-((5-(dimethylphosphoryl)-2-ethyl-1-oxo-1,2-dihydrophthalazin-6-yl)amino)pyrimidin-2-yl)amino)-5-ethoxy-2-ethylphenyl)piperidin-4-yl)piperazin-1-yl)methyl)azetidin-1-yl)-2,6-difluorophenyl)piperidine-2,6-dione] | 86.8 | 89.7
CCOc1cc(N2CCC(N3CCN(CCc4cc(F)c([C@H]5CCC(=O)NC5=O)c(F)c4)CC3)CC2)c(CC)cc1Nc1ncc(Br)c(Nc2ccc3nc(CC)ccc3c2P(C)(C)=O)n1 [Example 483, (R)-3-(4-(2-(4-(1-(4-((5-bromo-4-((5-(dimethylphosphoryl)-2-ethylquinolin-6-yl)amino)pyrimidin-2-yl)amino)-5-ethoxy-2-ethylphenyl)piperidin-4-yl)piperazin-1-yl)ethyl)-2,6-difluorophenyl)piperidine-2,6-dione] | 83.2 | 86.9
CCc1ccc2c(P(C)(C)=O)c(Nc3nc(Nc4cc(CC)c(N5CCC(N6CCN(C(=O)[C@@H]7CCN(c8cc(F)c([C@H]9CCC(=O)NC9=O)c(F)c8)C7)CC6)CC5)cc4OC)ncc3Br)ccc2n1 [Example 489, (R)-3-(4-((R)-3-(4-(1-(4-((5-bromo-4-((5-(dimethylphosphoryl)-2-ethylquinolin-6-yl)amino)pyrimidin-2-yl)amino)-2-ethyl-5-methoxyphenyl)piperidin-4-yl)piperazine-1-carbonyl)pyrrolidin-1-yl)-2,6-difluorophenyl)piperidine-2,6-dione] | 86.6 | 98.6
CCOc1cc(N2CCC(N3CCN(CCc4c(F)ccc5c4n(CC)c(=O)n5C4CCC(=O)NC4=O)CC3)CC2)c(CC)cc1Nc1ncc(Br)c(Nc2ccc3c(=O)n(CC)ncc3c2P(C)(C)=O)n1 (stereo not shown) [Example 559, 3-(4-(2-(4-(1-(4-((5-bromo-4-((5-(dimethylphosphoryl)-2-ethyl-1-oxo-1,2-dihydrophthalazin-6-yl)amino)pyrimidin-2-yl)amino)-5-ethoxy-2-ethylphenyl)piperidin-4-yl)piperazin-1-yl)ethyl)-3-ethyl-5-fluoro-2-oxo-2,3-dihydro-1H-benzo[d]imidazol-1-yl)piperidine-2,6-dione] | 90.4 | 92.4
CCc1ccc2c(P(C)(C)=O)c(Nc3nc(Nc4cc(CC)c(N5CCC(N6CCN(CCc7cc(F)c([C@H]8CCC(=O)NC8=O)c(F)c7)CC6)CC5)cc4OC)ncc3Br)ccc2n1 [Example 484, (R)-3-(4-(2-(4-(1-(4-((5-bromo-4-((5-(dimethylphosphoryl)-2-ethylquinolin-6-yl)amino)pyrimidin-2-yl)amino)-2-ethyl-5-methoxyphenyl)piperidin-4-yl)piperazin-1-yl)ethyl)-2,6-difluorophenyl)piperidine-2,6-dione] | 91.6 | 95.4

Results, then the compound that gave them:

Dmax (EGFR L858R/C797S) [%] | Dmax (EGFR L858R/T790M/C797S) [%] | SMILES
94.3 | 95.4 | CCc1cc(Nc2ncc(Br)c(Nc3ccc4nc(C)ccc4c3P(C)(C)=O)n2)c(OC)cc1N1CCC(N2CCN(C(=O)[C@@H]3CCN(c4cc(F)c([C@H]5CCC(=O)NC5=O)c(F)c4)C3)CC2)CC1 [Example 750, (R)-3-(4-((R)-3-(4-(1-(4-((5-bromo-4-((5-(dimethylphosphoryl)-2-methylquinolin-6-yl)amino)pyrimidin-2-yl)amino)-2-ethyl-5-methoxyphenyl)piperidin-4-yl)piperazine-1-carbonyl)pyrrolidin-1-yl)-2,6-difluorophenyl)piperidine-2,6-dione]
91.7 | 98.6 | CCc1ccc2c(P(C)(C)=O)c(Nc3nc(Nc4cc(CC)c(N5CCC(N6CCN(C(=O)C7CN(c8cc(F)c([C@H]9CCC(=O)NC9=O)c(F)c8)C7)CC6)CC5)cc4OC)ncc3Br)ccc2n1 [Example 755, (R)-3-(4-(3-(4-(1-(4-((5-bromo-4-((5-(dimethylphosphoryl)-2-ethylquinolin-6-yl)amino)pyrimidin-2-yl)amino)-2-ethyl-5-methoxyphenyl)piperidin-4-yl)piperazine-1-carbonyl)azetidin-1-yl)-2,6-difluorophenyl)piperidine-2,6-dione]
94.5 | 97 | CCc1cc(Nc2ncc(Br)c(Nc3ccc4c(=O)n(C)ncc4c3P(C)(C)=O)n2)c(OC)cc1N1CCC(N2CCN(CCc3cccc4c3C3(CC3)C(=O)N4C3CCC(=O)NC3=O)CC2)CC1 (stereo not shown) [Example 756, 3-(4′-(2-(4-(1-(4-((5-bromo-4-((5-(dimethylphosphoryl)-2-methyl-1-oxo-1,2-dihydrophthalazin-6-yl)amino)pyrimidin-2-yl)amino)-2-ethyl-5-methoxyphenyl)piperidin-4-yl)piperazin-1-yl)ethyl)-2′-oxospiro[cyclopropane-1,3′-indolin]-1′-yl)piperidine-2,6-dione]
95.9 | 92.2 | CCc1cc(Nc2ncc(Br)c(Nc3ccc4nc(C)c(F)cc4c3P(C)(C)=O)n2)c(OC)cc1N1CCC(N2CCN(C(=O)[C@H]3CN(c4cc(F)c([C@H]5CCC(=O)NC5=O)c(F)c4)CC3(C)C)CC2)CC1 [Example 576, (R)-3-(4-((R)-4-(4-(1-(4-((5-bromo-4-((5-(dimethylphosphoryl)-3-fluoro-2-methylquinolin-6-yl)amino)pyrimidin-2-yl)amino)-2-ethyl-5-methoxyphenyl)piperidin-4-yl)piperazine-1-carbonyl)-3,3-dimethylpyrrolidin-1-yl)-2,6-difluorophenyl)piperidine-2,6-dione]
94.1 | 91.2 | CCOc1cc(N2CCC(N3CCN(CCc4cccc5c4n(CC)c(=O)n5C4CCC(=O)NC4=O)CC3)CC2)c(CC)cc1Nc1ncc(Br)c(Nc2cc(F)c3nc(CC)ccc3c2P(C)(C)=O)n1 (stereo not shown) [Example 643, 3-(4-(2-(4-(1-(4-((5-bromo-4-((5-(dimethylphosphoryl)-2-ethyl-8-fluoroquinolin-6-yl)amino)pyrimidin-2-yl)amino)-5-ethoxy-2-ethylphenyl)piperidin-4-yl)piperazin-1-yl)ethyl)-3-ethyl-2-oxo-2,3-dihydro-1H-benzo[d]imidazol-1-yl)piperidine-2,6-dione]
